Results from patent publication US5725838A, “Radiolabeled D4 receptor ligands” (Resolution Pharmaceuticals, Inc., priority 1996, dated 1998).

Key:
[1] = target: T1, human D4 receptor (D4.2 sub-type) (Homo sapiens, UniProt P21917, DEL265-296); assay: D4 receptor binding, 3H-spiperone displacement; conditions: membranes of cells stably transfected with human D4.2; 0.25 nM 3H-spiperone; Cheng-Prusoff
T1 construct: expressed in transfected cells; host or cells: HEK 298 (so in the source); probably HEK 293), stably transfected, membrane preparation
T1 sequence (P21917 with tags, fused parts or gaps DEL265-296): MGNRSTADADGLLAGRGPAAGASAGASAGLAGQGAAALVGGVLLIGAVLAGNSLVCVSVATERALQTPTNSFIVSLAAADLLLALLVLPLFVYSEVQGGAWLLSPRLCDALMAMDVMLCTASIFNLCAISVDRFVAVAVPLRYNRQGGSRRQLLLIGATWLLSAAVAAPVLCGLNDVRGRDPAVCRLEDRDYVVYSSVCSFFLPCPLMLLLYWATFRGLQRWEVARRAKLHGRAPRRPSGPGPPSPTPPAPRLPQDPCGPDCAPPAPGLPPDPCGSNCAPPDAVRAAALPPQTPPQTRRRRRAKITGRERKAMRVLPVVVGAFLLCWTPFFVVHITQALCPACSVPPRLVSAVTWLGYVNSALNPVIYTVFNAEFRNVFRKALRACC
Procedure: The potency of the test compound to reduce ^3 H-spiperone binding directly correlated to its binding affinity for the receptor.
Individual filter disks were put in scintillation vials (Biovials, Bechman).
Ki was calculated by the Cheng and Prustoff transformation: […]
where [L] is the concentration of ^3 H-spiperone used in the assay and KD is the dissociation constant of ^3 H-spiperone determined independently under the same binding conditions.

[2] = target: T2, human D2 receptor (short isoform) (Homo sapiens, UniProt P14416); assay: D2 receptor binding, 3H-spiperone displacement; conditions: membranes of GH4 C1 (rat pituitary) cells stably transfected with human D2 short isoform; 0.25 nM 3H-spiperone; Cheng-Prusoff
T2 construct: expressed in transfected cells; host or cells: GH4 C1 (rat pituitary) cells, stably transfected, membrane preparation
Procedure: D2 and D4 receptor-binding affinities of the compounds of Example 3 were evaluated as described in WO95/17400 (incorporated herein by reference) for their ability to reduce binding of ^3 H-spiperone as compared to the reference compound clozapine. The potency of the test compound to reduce ^3 H-spiperone binding directly correlated to its binding affinity for the receptor.
Briefly, the D4 receptor was utilized in the form of membrane preparations obtained from […] cells stably transfected with human D4 receptor (D4.2 sub-type). […] Ready Protein Plus liquid scintillant (5 ml, Beckman) was added and the vials counted by liquid scintillation spectrophotometry (Beckman LSC 6500) after equilibrating for three hours at room temperature to determine total binding (Br).
Non-specific binding for D4 was assayed by incubating membrane homogenate, ^3 H-spiperone and fresh dopamine. Filtrate was counted using the same procedure as in the total binding assay described above to give the non-specific binding value (NSB). Non-specific binding for D2 was similarly assessed, with the exception that (-)-sulpiride was used in place of dopamine.
To assess displacement, membrane homogenate was incubated with ^3 H-spiperone and test compound dissolved in DMSO. Filtrate was counted using the same procedure as in the total binding assay described above, to give the displacement binding value (BD). […]

T2 sequence (P14416 1-414 isoform P14416-2): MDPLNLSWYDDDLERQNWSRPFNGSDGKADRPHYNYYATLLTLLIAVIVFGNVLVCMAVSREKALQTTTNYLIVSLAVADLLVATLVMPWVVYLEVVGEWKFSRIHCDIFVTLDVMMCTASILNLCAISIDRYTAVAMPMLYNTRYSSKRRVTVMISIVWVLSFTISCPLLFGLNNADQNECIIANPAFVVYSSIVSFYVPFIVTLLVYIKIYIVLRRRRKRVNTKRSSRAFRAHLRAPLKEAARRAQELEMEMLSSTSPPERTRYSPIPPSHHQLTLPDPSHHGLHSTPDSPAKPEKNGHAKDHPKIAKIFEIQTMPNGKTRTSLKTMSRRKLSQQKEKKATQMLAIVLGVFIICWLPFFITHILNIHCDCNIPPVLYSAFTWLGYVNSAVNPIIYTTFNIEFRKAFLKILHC

Ki [1]: 0.00016 µM | Ki [2]: 2.37 µM
Structure (SMILES): Ic1ccc(N2CCN(Cc3c[nH]c4ncccc34)CC2)cc1 [3-[4-(4-iodophenyl)-piperazin-1-yl]methyl-1H-pyrrolo[2,3-b]pyridine]
